# Assay results taken from patent US6458835B2, “Method of inhibiting or treating chemotherapy-induced hair loss” (Bristol-Myers Squibb Company, priority 1997, dated 2002).
# Key:
# C3H mice = assay: Hair growth (hair follicle stimulation) in C3H mouse model, topical application; type: in vivo; details: for percent of animals showing hair follicle stimulation / time of onset of follicle stimulation: 2% solution topical 1x daily; for time of onset of follicle stimulation: male C3H mice, 5 days per week
# Source text: The two enantiomers were compared topically for hair growth in C3H mice.
# The C3H mouse is a useful model for studying hair growth. Its usefulness rests with the fact that skin pigmentation of this animal is provided by the melanocytes of the hair follicle and not the epidermis. In the telogen or the resting phase of the hair follicle, the skin is pink. In the earliest phase of anagen or the growth phase, there is sudden graying of the skin and as the anagen phase progresses the skin becomes darker in color. In this study, visual observation was used as an in vivo assay of anagen induction. Furthermore as anagen develops, the skin thickness increases from a thin telogen skin to a measurably thickened anagen skin. Thus, recording the skin color and microscopic thickness of skin from these mice offers a sensitive, quantifiable and convenient method of assessing the phases of hair growth.
# Groups of 20, six to seven week old male C3H mice with hair follicles in the resting phase of hair growth were used. At this stage in their life, the hair follicles remain in the telogen phase for up to 30 days or longer. This provides an adequate window of time to screen drugs. […] This stimulation is manifested by the shortening of the telogen phase of the hair follicle cycle.
# Animals were anesthetized with ketamine/rompun (100 mg/Kg and 12 mg/Kg) IP and the hair over a defined dorsal area were closely clipped.
# The vehicle employed was ethanol/propylene glycol/water, 60/30/10. Treatment was continued for at least 4-5 weeks.
# Animals were observed daily for side effects and changes to the test sites. All observations were documented. Test sites were graded weekly for changes in skin color and hair growth. In this study drug effects were evaluated using the visual observation of skin changing from pink to gray and resulting in hair growth.
Compound,IC50 (Vasorelaxant potency),melting point,"onset of action compared to the corresponding enantiomer (C3H mice; C3H mice, versus (S)-enantiomer)",percent of animals showing hair follicle stimulation (C3H mice; by day 11 of treatment),percent of animals showing hair follicle stimulation (C3H mice; by day 14),percent of animals showing hair follicle stimulation (C3H mice; by day 28),time of onset of follicle stimulation (C3H mice),hair growth promoting ability relative to the (S)-enantiomer (C3H mice; producing hair growth within 11 days of treatment),"incidence of hair follicle stimulation compared to the other enantiomer (C3H mice; throughout the treatment period, versus Example 2-(S)-enantiomer)"
"C[C@@H](NC(=NC#N)Nc1ccc(C#N)cc1)C(C)(C)C [Example 1, (R)-4-[[(Cyanoimino)[(1,2,2-trimethylpropyl)amino]-methyl]amino]benzonitrile]",47 ± 17 nM,159 to 160 °C,faster onset of action,40%,50%,85%,7 days,8 times,higher incidence of hair follicle stimulation
"C[C@H](NC(=NC#N)Nc1ccc(C#N)cc1)C(C)(C)C [Example 2, (S)-4-[[(Cyanoimino)[(1,2,2-trimethylpropyl)amino]-methyl]amino]benzonitrile]",157 ± 35 nM,158 to 159 °C,–,5%,25%,65%,11 days,–,–
